Experimental findings from patent publication US20210137119A1 (priority 2017, published 2021) are described below.

The assay concerns Fusarium graminearum in wheat. Type of assay: in vivo.
Setting [1] is: Trial 1, dosage mL/Ha: benzovindiflupyr 200, phenamacril 1500, combination 200 + 1500.
[2] abbreviates: Trial 2, dosage mL/Ha: benzovindiflupyr 200, phenamacril 1500, combination 200 + 1500.
Where [3] appears, read: Trial 3, dosage mL/Ha: benzovindiflupyr 200, phenamacril 1500, combination 150 + 1250.
[4] abbreviates: Trial 4, dosage mL/Ha: benzovindiflupyr 200, phenamacril 1500, combination 150 + 1250.

Read-outs that look alike come from different tables or passages of the source.

In the case of `Cn1cc(C(=O)Nc2cccc3c2[C@@H]2CC[C@H]3C2=C(Cl)Cl)c(C(F)F)n1` (racemic) [Benzovindiflupyr, N-[(1RS,4SR)-9-(dichloromethylene)-1,2,3,4-tetrahydro-1,4-methanonaphthalen-5-yl]-3-(difluoromethyl)-1-methylpyrazole-4-carboxamide], the “% disease control of Fusarium graminearum in wheat at 3DAA, Actual” value (“% disease control … at 3DAA, Actual” for short) under setting [1] was found to be 27% and the “% disease control … at 3DAA, Actual” value under setting [3] is 27%. The “% disease control of Fusarium graminearum in wheat at 7DAA, Actual” value (from here on “% disease control … at 7DAA, Actual”) is, setting by setting: under setting [2], 27%; under setting [4], 27%.

Turning to `CCOC(=O)C(C#N)=C(N)c1ccccc1` [Phenamacril, ethyl (2EZ)-3-amino-2-cyano-3-phenylacrylate], the “% disease control … at 3DAA, Actual” value runs as follows: under setting [1], 83.5%; under setting [3], 83.5%. For the same compound, the “% disease control … at 7DAA, Actual” value under setting [2] was 83.5% and the “% disease control … at 7DAA, Actual” value under setting [4] was found to be 83.5%.
